Measurements from patent US5780505A, “Substituted N-arylmethylamino derivatives of cyclobutene-3, 4-diones” (American Home Products Corporation, priority 1997, dated 1998).

System: Isolated Rat Bladder Strips
Experiment: Inhibition of contractions in isolated rat bladder strips (KCl-enhanced contractile activity; smooth muscle relaxation)
Format: cell-based, Sprague-Dawley rats
Details: for IC50 / percent contraction at 30 µM: 0.5 h; for IC50: isolated rat bladder strips, 15 mM additional KCl, 30 minute challenge, read-out: IC50 (50% inhibition of pre-drug contractile activity); for inhibition at 30 µM / percent contraction at 30 µM: Rattus norvegicus; for inhibition at 30 µM: read-out: Percent inhibition at 30 μM (I); for percent contraction at 30 µM: read-out: Percent contraction at 30 μM (C)
Source text: The smooth muscle relaxing activity of the compounds of this invention was established in accordance with standard pharmaceutically accepted test procedures with representative compounds as follows:
Sprague-Dawley rats (150-200 g) are rendered unconscious by CO2 asphyxiation and then euthanized by cervical dislocation. The bladder is removed into warm (37 deg.C) physiological salt solution (PSS) of the following composition (mM): NaCl, 118.4; KCl, 4.7; CaCl2, 2.5; MgSO4, 4.7; H2 O, 1,2; NaHCO3, 24.9; KH2 PO4, 1,2; glucose, 11.1; EDTA, 0.023; gassed with […]; pH 7.4. The bladder is opened and then dut into strips 1-2 mm in width and 7-10 mm in length. The strips are subsequently suspended in a 10 mL tissue bath under an initial resting tension of 1.5 g. The strips are held in place by two surgical clips one of which is attached to a fixed hook while the other is attached to an isometric force transducer. […] The carbachol is then washed out and the tissue allowed to relax to its resting level of activity. Following a further 30 min period of recovery an additional 15 mM KCl are introduced into the tissue bath. This increase in KCl concentration results in a large increase in the amplitude of spontaneous contractions (and initiation of contractions in previously quiescent strips) superimposed upon a small increase in basal tone. Following stabilization of this enhanced level of contractile activity, incremental increases in the concentration of test compound or vehicle are introduced into the tissue bath. Contractile activity is measured for each compound or vehicle concentration during the last minute of a 30 minute challenge.
The isometric force developed by the bladder strips is measured using a […] to elicit 50% inhibition of pre-drug contractile activity (IC50 concentration) and is calculated from this concentration-response curve.

| SMILES | IC50 [nM] | inhibition at 30 µM [%] | percent contraction at 30 µM [%] |
| --- | --- | --- | --- |
| CCc1cccc(C)c1CNc1c(NC(C)(C)C)c(=O)c1=O [Example 58, 3-tert-Butylamino-4-(2-ethyl-6-methyl-benzylamino)-cyclobut-3-ene-1,2-dione] | 2300 ± 240 | 25 |  |
| CCC(CC)Nc1c(NCc2ccc(OC)c(OC)c2)c(=O)c1=O [Example 14, 3-(3,4-Dimethoxy-benzylamino)-4-(1-ethyl-propylamino)-cyclobut-3-ene-1,2-dione] |  | 27.2 ± 2.4 | 54 |
| CCC(C)(C)Nc1c(NCc2c(C)cccc2C)c(=O)c1=O [Example 53, 3-(2,6-Dimethyl-benzylamino)-4-(1,1-dimethyl-propylamino)-cyclobut-3-ene-1,2-dione] | 830 ± 660 |  |  |
| Cc1cc(C#N)ccc1CNc1c(N[C@H](C)C(C)(C)C)c(=O)c1=O [Example 55, 4-{[3,4-Dioxo-2-(1,2,2-trimethyl-propylamino)-cyclobut-1-enylamino]-methyl}-3-methyl-benzonitrile] | 1500 ± 400 |  |  |
| CCC(C)(C)Nc1c(NCc2c(C)cc(C)cc2Cl)c(=O)c1=O [Example 40, 3-(2-Chloro-4,6-dimethyl-benzylamino)-4-(1,1-dimethyl-propylamino)-cyclobut-3-ene-1,2-dione] | 200 ± 80 |  |  |
| CC(C)(C)Nc1c(NCc2cc(F)ccc2F)c(=O)c1=O [Example 21, 3-tert-Butylamino-4-(2,5-difluoro-benzylamino)-cyclobut-3-ene-1,2-dione] | 3900 ± 1100 |  |  |
| Cc1cccc(CNc2c(NC(C)(C)C)c(=O)c2=O)c1C [Example 23, 3-tert-Butylamino-4-(2,3-dimethyl-benzylamino)-cyclobut-3-ene-1,2-dione] | 2700 ± 300 |  |  |
| CC(C)(C)Nc1c(NCc2ccc(F)cc2C(F)(F)F)c(=O)c1=O [Example 59, 3-tert-Butylamino-4-(4-fluoro-2-trifluoromethyl-benzylamino)-cyclobut-3-ene-1,2-dione] | 1800 ± 600 |  |  |
| CCc1cc(C#N)ccc1CNc1c(NC(C)C)c(=O)c1=O [Example 25] | 31000 ± 4500 |  |  |
| CCc1cc(CNc2c(N[C@H](C)C(C)(C)C)c(=O)c2=O)ccc1C#N [Example 45, 4-[{3,4-Dioxo-2-(1,2,2-trimethyl-propylamino)-cyclobut-1-enylamino]-methyl}-2-ethyl-benzonitrile] |  | 25 ± 2.04 |  |
| C[C@@H](Nc1c(NCc2ccc(C#N)c(Cl)c2)c(=O)c1=O)C(C)(C)C [Example 42, 2-Chloro-4-{[3,4-dioxo-2-(1,2,2-trimethyl-pronylamino)-cyclobut-1-enylamino]-methyl}-benzonitrile] | 4700 ± 1200 |  |  |
| Cc1cc(C#N)cc(CNc2c(NC(C)(C)C)c(=O)c2=O)c1 [Example 16, 3-[(2-tert-Butylamino-3,4-dioxo-cyclobut-1-enylamino)-methyl]-5-methyl-benzonitrile] | 2900 ± 100 |  |  |
| CC(C)(C)Nc1c(NCc2ccc(C#N)c(Cl)c2)c(=O)c1=O [Example 43, 4-[(2-tert-Butylamino-3,4-dioxo-cyclobut-1-enylamino)-methyl]-2-chloro-benzonitrile] | 1100 ± 100 |  |  |
| CC(C)(C)Nc1c(NCc2ccc(F)cc2Cl)c(=O)c1=O [Example 60, 3-tert-Butylamino-4-(2-chloro-4-fluoro-benzylamino)-cyclobut-3-ene-1,2-dione] | 1400 ± 400 |  |  |
| CCC(C)(C)Nc1c(NCc2cc(C)cc(C)c2)c(=O)c1=O [Example 87, 3-(3.5-Dimethyl-benzylamino)-4-(1,1-dimethyl-propylamino)-cyclobut-3-ene-1,2-dione] |  | 13.6 ± 8.4 |  |
| Cc1cccc(C)c1CNc1c(NCC(F)(F)C(F)(F)F)c(=O)c1=O [Example 54, 3-(2,6-Dimethyl-benzylamino)-4-(2,2,3,3,3-pentafluoro-propylamino)-cyclobut-3-ene-1,2-dione] | 17800 | 46 |  |
| CCc1cc(Br)ccc1CNc1c(NC(C)(C)C)c(=O)c1=O [Example 48, 3-(4-Bromo-2-ethyl-benzylamino)-4-tert-butylamino-cyclobut-3-ene-1,2-dione] | 270 ± 80 |  |  |
| CC(C)(C)Nc1c(NCc2ccc(F)c(Cl)c2)c(=O)c1=O [Example 67, 3-tert-Butylamino-4-(3-chloro-4-fluoro-benzylamino)-cyclobut-3-ene-1,2-dione] | 5300 ± 1200 | 47.7 |  |
| CC(C)(C)Nc1c(NCc2ccc(F)c(F)c2)c(=O)c1=O [Example 68, 3-tert-Butylamino-4-(3,4-difluoro-benzylamino)-cyclobut-3-ene-1,2-dione] | 2200 ± 800 |  |  |
| CCC(C)(C)Nc1c(NCc2ccc(F)cc2Cl)c(=O)c1=O [Example 63, 3-(2-Chloro-4-fluoro-benzylamino)-4-(1,1-dimethyl-propylamino)-cyclobut-3-ene-1,2-dione] | 1500 ± 1000 |  |  |
| CCC(C)(C)Nc1c(NCc2ccc(C)c(C)c2)c(=O)c1=O [Example 85, 3-(3A-Dimethyl-benzylamino)-4-(1,1-dimethyl-propylamino)-cyclobut-3-ene-1,2-dione] |  | 35.1 ± 4.4 |  |
| CCC(C)(C)Nc1c(NCc2c(Cl)cccc2Cl)c(=O)c1=O [Example 4, 3-(2,6-Dichloro-benzylamino)-4-(1,1-dimethyl-propylamino)-cyclobut-3-ene-1,2-dione] | 280 ± 30 |  |  |
| C[C@@H](Nc1c(NCc2cc(F)ccc2Cl)c(=O)c1=O)C(C)(C)C [Example 65, 3-(2-Chloro-5-fluoro-benzylamino)-4-(1,2,2-trimethyl-propylamino)-cyclobut-3-ene-1,2-dione] | 850 ± 410 |  |  |
| Cc1cc(C#N)cc(CNc2c(NC(C)C(C)(C)C)c(=O)c2=O)c1 (stereo not shown) [Example 12, 3-{[3,4-Dioxo-2-(1,2,2-trimethyl-propylamino)-cyclobut-1-enylamino]-methyl}-5-methyl-benzonitrile] | 6600 ± 1600 | 37 ± 0.7 |  |

Now from value to compound, other results behind:

| IC50 [nM] | SMILES | inhibition at 30 µM [%] | percent contraction at 30 µM [%] |
| --- | --- | --- | --- |
| 1300 ± 300 | Cc1c(Cl)cccc1CNc1c(NC(C)(C)C)c(=O)c1=O [Example 96, 3-tert-Butylamino-4-(3-chloro-2-methyl-benzylamino)-cyclobut-3-ene-1,2-dione] |  |  |
| 2360 ± 1600 | CCCC(=O)N(Cc1ccc(C#N)cc1Cl)c1c(NC(C)(C)C)c(=O)c1=O [Example 101] |  |  |
| 750 ± 450 | CCC(C)(C)Nc1c(NCc2cc(F)cc(F)c2)c(=O)c1=O [Example 74, 3-(3,5-Difluoro-benzylamino)-4-(1,1-dimethyl-propylamino)-cyclobut-3-ene-1,2-dione] |  |  |
| 2800 ± 1300 | CCCC(=O)N(Cc1ccc(C#N)cc1Cl)c1c(NC(C)(C)CC)c(=O)c1=O [Example 78] | 18 ± 6.5 | 28.5 ± 8.7 |
| 680 ± 240 | CC(C)(C)Nc1c(NCc2cc(Cl)ccc2Cl)c(=O)c1=O [Example 82, 3-tert-Butylamino-4-(2,5-dichloro-benzylamino)-cyclobut-3-ene-1,2-dione] |  |  |
| 530 ± 230 | CCC(C)(C)Nc1c(NCc2ccc(C)cc2C)c(=O)c1=O [Example 79, 3-(2.4-Dimethyl-benzylamino)-4-(1,1-dimethyl-propylamino)-cyclobut-3-ene-1,2-dione] |  |  |
| 20300 ± 790 | CC(=O)N(Cc1ccc(C#N)cc1Cl)c1c(NC(C)(C)C)c(=O)c1=O [Example 98, N-(2-tert-Butylamino-3,4-dioxo-cyclobut-1-enyl)-N-(2-chloro-4-cyano-benzyl)-acetamide] |  |  |
| 2300 ± 850 | CC(C)(C)Nc1c(NCc2cc(Cl)cc(Cl)c2)c(=O)c1=O [Example 89, 3-tert-Butylamino-4-(3.5-dichloro-benzylamino)-cyclobut-3-ene-1,2-dione] |  |  |
| 5400 ± 2100 | C[C@@H](Nc1c(NCc2ccc(F)c(Cl)c2)c(=O)c1=O)C(C)(C)C [Example 69, 3-(3-Chloro-4-fluoro-benzylamino)-4-(1,2,2-trimethyl-propylamino)-cyclobut-3-ene-1,2-dione] |  |  |
| 1500 ± 300 | Cc1ccc(C)c(CNc2c(NC(C)(C)C)c(=O)c2=O)c1 [Example 95, 3-(t-Butylamino)-4-(2.5-dimethyl-benzylamino)-cyclobut-3-ene-1,2-dione] |  |  |
| 5100 ± 960 | Cc1cc(C)cc(CNc2c(NC(C)(C)C)c(=O)c2=O)c1 [Example 86, 3-tert-Butylamino-4-(3,5-dimethyl-benzylamino)-cyclobut-3-ene-1,2-dione] |  |  |
| 1590 ± 270 | CC(Nc1c(NCc2ccc(C#N)cc2Cl)c(=O)c1=O)C(C)(C)F (stereo not shown) [Example 75, 3-Chloro-4-{[2-(2-fluoro-1,2-dimethyl-propylamino)-3,4-dioxo-cyclobut-1-enylamino]-methyl)-benzonitrile] |  |  |
| 8100 ± 2000 | CC(C)(CO)Nc1c(NCc2ccc(C#N)cc2Cl)c(=O)c1=O [Example 93, 3-Chloro-4-{[2-(2-hydroxy-1,1-dimethyl-ethylamino)-3,4-dioxo-cyclobut-1-enylamino]-methyl}-benzonitrile] | 44 |  |
| 810 ± 320 | CCC(C)(C)Nc1c(NCc2cc(Cl)ccc2Cl)c(=O)c1=O [Example 83, 3-(2.5-Dichloro-benzylamino)-4-(1,1-dimethyl-propylamino)-cyclobut-3-ene-1,2-dione] |  |  |
